Test results as given in patent publication US12168763B2, “Microorganisms and methods for reducing bacterial contamination” (Melio Peptide Systems Inc., priority 2020, dated 2024).
“Also recorded” adds a separate entry of the source. Where no end group is shown, it is not given here.

What was measured:
L. fermentum NCCB 46038 [1] = test: Soft-agar overlay screen of peptide-expressing yeast (BY4742)
E. faecium NCCB 86023 = test: as above
W. confusa CCUG30943 = test: as above
[2] = test system: P. pentosaceus NCCB 31016; test: as above; conditions: soft-agar overlay, peptide-expressing yeast
L. reuteri CCUG 32624 = test: as above
W. confusa CCUG30113 = test: as above
[3] = test system: L. delbrueckii CCUG 34222; test: as above
L. lactis NCCB 26066 = test: as above
[4] = test system: P. pentosaceus NCCB 31016; test: Soft-agar overlay assay of S. cerevisiae M2 strain expressing pediocin PA-1 variants; conditions: S. cerevisiae M2 transformants; compared to wild-type pediocin PA-1
[5] = test system: L. delbrueckii CCUG 34222T; test: as above; conditions: S. cerevisiae M2 transformants; compared to wild-type pediocin PA-1
L. fermentum NCCB 46038 [6] = test: Soft-agar overlay assay of S. cerevisiae BY4742 secreting persulcatusin variants from pHVXU plasmids; conditions: for Change in activity: alanine scanning of persulcatusin, relative to wild-type, soft-agar overlay

| Substance | Growth inhibition zone (halo) of P. pentosaceus [4] | Growth inhibition zone (halo) of L. delbrueckii [5] | Change in activity (L. fermentum NCCB 46038 [6]) | further results |
| --- | --- | --- | --- | --- |
| Bactofencin A |  |  |  | Inhibition, L. fermentum NCCB 46038 (L. fermentum NCCB 46038 [1]): +; Inhibition, E. faecium NCCB 86023 (E. faecium NCCB 86023): +; Inhibition, W. confusa CCUG30943 (W. confusa CCUG30943): −; Inhibition, P. pentosaceus NCCB 31016 [2]: +; Inhibition, L. reuteri CCUG 32624 (L. reuteri CCUG 32624): −; Inhibition, W. confusa CCUG30113 (W. confusa CCUG30113): −; Inhibition, L. delbrueckii CCUG 34222 [3]: +; Inhibition, L. lactis NCCB 26066 (L. lactis NCCB 26066): + |
| Engineered pediocin PA-1 with [K20A] (KYYGNGVTCGKHSCSVDWGAATTCIINNGAMAWATGGHQGNHKC; ends and bridges not checked; cysteine pairing not given here) [pediocin PA-1 K20A] | Growth inhibition zones of P. pentosaceus were observable | Growth inhibition zones of L. delbrueckii were observable |  |  |
| Engineered pediocin PA-1 with [S13A] (KYYGNGVTCGKHACSVDWGKATTCIINNGAMAWATGGHQGNHKC; ends and bridges not checked; cysteine pairing not given here) [pediocin PA-1 S13A] | Growth inhibition zones of P. pentosaceus were observable | Growth inhibition zones of L. delbrueckii were observable |  |  |
| Engineered pediocin PA-1 with [S15A] (KYYGNGVTCGKHSCAVDWGKATTCIINNGAMAWATGGHQGNHKC; ends and bridges not checked; cysteine pairing not given here) [pediocin PA-1 S15A] | Growth inhibition zones of P. pentosaceus were observable | Growth inhibition zones of L. delbrueckii were observable |  |  |
| Engineered pediocin PA-1 with [pediocin PA-1 G19A, Engineered pediocin PA-1 with [G19A]] | Growth inhibition zones of P. pentosaceus were observable |  |  |  |
| Engineered pediocin PA-1 with [pediocin PA-1 K1A, Engineered pediocin PA-1 with [K1A]] | largest halo | largest halo |  |  |
| Engineered pediocin PA-1 with [pediocin PA-1 K1A/G19A, Engineered pediocin PA-1 with [K1A/G19A]] | Growth inhibition zones of P. pentosaceus and L. delbrueckii were observable | Growth inhibition zones of P. pentosaceus and L. delbrueckii were observable |  |  |
| Engineered pediocin PA-1 with [pediocin PA-1 K1A/K20A, Engineered pediocin PA-1 with [K1A/K20A]] | Growth inhibition zones of P. pentosaceus and L. delbrueckii were observable | Growth inhibition zones of P. pentosaceus and L. delbrueckii were observable |  |  |
| Engineered pediocin PA-1 with [pediocin PA-1 K1A/S13A, Engineered pediocin PA-1 with [K1A/S13A]] | Growth inhibition zones of P. pentosaceus and L. delbrueckii were observable | Growth inhibition zones of P. pentosaceus and L. delbrueckii were observable |  |  |
| Engineered pediocin PA-1 with [pediocin PA-1 K1A/S15A, Engineered pediocin PA-1 with [K1A/S15A]] | Growth inhibition zones of P. pentosaceus and L. delbrueckii were observable | Growth inhibition zones of P. pentosaceus and L. delbrueckii were observable |  |  |
| Engineered pediocin PA-1 with [pediocin PA-1 K1A/T22A, Engineered pediocin PA-1 with [K1A/T22A]] | largest halo |  |  |  |
| Engineered pediocin PA-1 with [pediocin PA-1 K1T, Engineered pediocin PA-1 with [K1T]] |  | slightly bigger halo than wild-type pediocin PA-1; also recorded: Growth inhibition zones were observable |  |  |
| Engineered pediocin PA-1 with [pediocin PA-1 T22A, Engineered pediocin PA-1 with [T22A]] | Growth inhibition zones of P. pentosaceus were observable |  |  |  |
| Engineered persulcatusin with [Mutation S-176-2-1, Engineered persulcatusin with [F6V/R13S]] |  |  |  | Increase in Activity (L. fermentum NCCB 46038 [6]; random mutagenesis clones of persulcatusin, increase of growth inhibition zones): ++ |
| F2A: persulcatusin (SEQ ID NO: 1) alanine-scan variant F2A (GAGCPFNQGACHRHCRSIGRRGGYCAGLFKQTCTCYSR; listed as Ixodes persulcatus) [Mutation F2A] |  |  | − |  |
| G1A: persulcatusin (SEQ ID NO: 1) alanine-scan variant G1A (AFGCPFNQGACHRHCRSIGRRGGYCAGLFKQTCTCYSR; listed as Ixodes persulcatus) [Mutation G1A] |  |  | − |  |
| G22A: persulcatusin (SEQ ID NO: 1) alanine-scan variant G22A (GFGCPFNQGACHRHCRSIGRRAGYCAGLFKQTCTCYSR; listed as Ixodes persulcatus) [Mutation G22A] |  |  | − |  |
| G23A: persulcatusin (SEQ ID NO: 1) alanine-scan variant G23A (GFGCPFNQGACHRHCRSIGRRGAYCAGLFKQTCTCYSR; listed as Ixodes persulcatus) [Mutation G23A] |  |  | − |  |
| G27A: persulcatusin (SEQ ID NO: 1) alanine-scan variant G27A (GFGCPFNQGACHRHCRSIGRRGGYCAALFKQTCTCYSR; listed as Ixodes persulcatus) [Mutation G27A] |  |  | − |  |
| H12A: persulcatusin (SEQ ID NO: 1) alanine-scan variant H12A (GFGCPFNQGACARHCRSIGRRGGYCAGLFKQTCTCYSR; listed as Ixodes persulcatus) [Mutation H12A] |  |  | − |  |
| H14A: persulcatusin (SEQ ID NO: 1) alanine-scan variant H14A (GFGCPFNQGACHRACRSIGRRGGYCAGLFKQTCTCYSR; listed as Ixodes persulcatus) [Mutation H14A] |  |  | − |  |
| K30A: persulcatusin (SEQ ID NO: 1) alanine-scan variant K30A (GFGCPFNQGACHRHCRSIGRRGGYCAGLFAQTCTCYSR; listed as Ixodes persulcatus) [Mutation K30A] |  |  | − |  |
| N7A: persulcatusin (SEQ ID NO: 1) alanine-scan variant N7A (GFGCPFAQGACHRHCRSIGRRGGYCAGLFKQTCTCYSR; listed as Ixodes persulcatus) [Mutation N7A] |  |  | − |  |
| Q8A: persulcatusin (SEQ ID NO: 1) alanine-scan variant Q8A (GFGCPFNAGACHRHCRSIGRRGGYCAGLFKQTCTCYSR; listed as Ixodes persulcatus) [Mutation Q8A] |  |  | − |  |
| Q31A: persulcatusin (SEQ ID NO: 1) alanine-scan variant Q31A (GFGCPFNQGACHRHCRSIGRRGGYCAGLFKATCTCYSR; listed as Ixodes persulcatus) [Mutation Q31A] |  |  | − |  |
| S17A: persulcatusin (SEQ ID NO: 1) alanine-scan variant S17A (GFGCPFNQGACHRHCRAIGRRGGYCAGLFKQTCTCYSR; listed as Ixodes persulcatus) [Mutation S17A] |  |  | − |  |
| T32A: persulcatusin (SEQ ID NO: 1) alanine-scan variant T32A (GFGCPFNQGACHRHCRSIGRRGGYCAGLFKQACTCYSR; listed as Ixodes persulcatus) [Mutation T32A] |  |  | − |  |
| T34A: persulcatusin (SEQ ID NO: 1) alanine-scan variant T34A (GFGCPFNQGACHRHCRSIGRRGGYCAGLFKQTCACYSR; listed as Ixodes persulcatus) [Mutation T34A] |  |  | − |  |
| Y24A: persulcatusin (SEQ ID NO: 1) alanine-scan variant Y24A (GFGCPFNQGACHRHCRSIGRRGGACAGLFKQTCTCYSR; listed as Ixodes persulcatus) [Mutation Y24A] |  |  | − |  |
| Y36A: persulcatusin (SEQ ID NO: 1) alanine-scan variant Y36A (GFGCPFNQGACHRHCRSIGRRGGYCAGLFKQTCTCASR; listed as Ixodes persulcatus) [Mutation Y36A] |  |  | − |  |
